# Target: T1, human PAR4 (Homo sapiens, UniProt Q96RI0)
# T1 construct: expressed in transfected cells; host or cells: HEK293 PAR4 Clone 1.2A (BMS Arctic ID 383940)
# T1 sequence (Q96RI0 18-385): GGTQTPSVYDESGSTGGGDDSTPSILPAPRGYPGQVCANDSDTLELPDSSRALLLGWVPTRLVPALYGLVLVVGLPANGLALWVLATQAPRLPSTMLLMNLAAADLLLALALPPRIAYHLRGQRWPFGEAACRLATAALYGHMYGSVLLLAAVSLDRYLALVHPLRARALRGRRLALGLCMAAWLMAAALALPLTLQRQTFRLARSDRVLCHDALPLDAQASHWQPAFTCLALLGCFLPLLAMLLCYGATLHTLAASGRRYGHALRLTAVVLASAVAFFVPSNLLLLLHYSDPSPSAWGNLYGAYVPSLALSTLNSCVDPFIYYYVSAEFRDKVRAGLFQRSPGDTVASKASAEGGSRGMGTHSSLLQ
# Experiment: PAR4 FLIPR assay: antagonism of agonist-peptide-induced calcium mobilization in PAR4-expressing HEK293 cells
# Format: cell-based
# Details: H-Ala-Phe(4-F)-[…]NH2-induced intracellular calcium mobilization, 11-point curves
row,SMILES,IC50
1,"COc1cc(C(O)Cc2ccccc2)c2nc(-c3cc(C)cc4nc(OC)cnc34)sc2c1 (stereo not drawn) [Example 631, 1-(6-methoxy-2-(2-methoxy-7-methylquinoxalin-5-yl)benzo[d]thiazol-4-yl)-2-phenylethanol]",5.3 nM
2,"COc1cnc2c(-c3nc4c(C(O)C(C)(C)C)c(F)c(OC)cc4s3)cc(C)cc2n1 (stereo not drawn) [Example 632, 1-(5-fluoro-6-methoxy-2-(2-methoxy-7-methylquinoxalin-5-yl)benzo[d]thiazol-4-yl)-2,2-dimethylpropan-1-ol]",10 nM
3,"COc1cc(C(F)C(C)(C)C)c2nc(-c3cc(C)cc4nc(OC)cnc34)sc2c1 (stereo not drawn) [Example 634, 4-(1-fluoro-2,2-dimethylpropyl)-6-methoxy-2-(2-methoxy-7-methylquinoxalin-5-yl)benzo[d]thiazole]",44 nM
4,"COCc1cnc2c(-c3nc4c(OCc5ccccc5)cc(OC)cc4s3)cc(C)cc2n1 [Example 635, 4-(benzyloxy)-6-methoxy-2-(2-(methoxymethyl)-7-methylquinoxalin-5-yl)benzo[d]thiazole]",10 nM
5,"CCOc1cc(C(O)C(C)(C)C)c2nc(-c3cc(C)cc4nc(OC)cnc34)sc2c1 (stereo not drawn) [Example 640, 1-(6-ethoxy-2-(2-methoxy-7-methylquinoxalin-5-yl)benzo[d]thiazol-4-yl)-2,2-dimethylpropan-1-ol]",8 nM
6,"COc1cc(CCO)c2nc(-c3cc(C)cc4nc(OC)cnc34)sc2c1 [Example 641, 2-(6-methoxy-2-(2-methoxy-7-methylquinoxalin-5-yl)benzo[d]thiazol-4-yl)ethanol]",250 nM
7,"COc1cc(C(O)c2cccc(C(F)(F)F)c2)c2nc(-c3cc(C)cc4nc(OC)cnc34)sc2c1 (stereo not drawn) [Example 642, (6-methoxy-2-(2-methoxy-7-methylquinoxalin-5-yl)benzo[d]thiazol-4-yl)(3-(trifluoromethyl)phenyl)methanol]",4.6 nM
8,"COc1cc(C(O)c2ccccc2C(C)C)c2nc(-c3cc(C)cc4nc(OC)cnc34)sc2c1 (stereo not drawn) [Example 643, (2-isopropylphenyl)(6-methoxy-2-(2-methoxy-7-methylquinoxalin-5-yl)benzo[d]thiazol-4-yl)methanol]",5.3 nM
9,"CCOC(=O)C1(C(O)c2cc(OC)cc3sc(-c4cc(C)cc5nc(OC)cnc45)nc23)CCC1 (stereo not drawn) [Example 644, Ethyl 1-(hydroxy(6-methoxy-2-(2-methoxy-7-methylquinoxalin-5-yl)benzo[d]thiazol-4-yl)methyl)cyclobutanecarboxylate]",21 nM
10,"COc1cnc2c(-c3nc4cc(F)c(O[C@@H](C)[C@@H](C)OC(=O)Nc5cnc(C)nc5)cc4s3)cc(Cl)cc2c1 [Example 645, (2R,3S)-3-((2-(6-chloro-3-methoxyquinolin-8-yl)-5-fluorobenzo[d]thiazol-6-yl)oxy)butan-2-yl (2-methylpyrimidin-5-yl)carbamate]",4.9 nM
11,"CCc1cnc2c(-c3nc4cc(F)c(O[C@@H](C)[C@@H](C)OC(=O)Nc5cnc(C)nc5)cc4s3)cc(Cl)cc2c1 [Example 647, (2R,3S)-3-((2-(6-chloro-3-ethylquinolin-8-yl)-5-fluorobenzo[d]thiazol-6-yl)oxy)butan-2-yl(2-methylpyrimidin-5-yl)carbamate]",19 nM
12,"CCOc1cnc2c(-c3nc4cc(F)c(O[C@@H](C)[C@@H](C)OC(=O)Nc5cnc(C)nc5)cc4s3)cc(Cl)cc2c1 [Example 649, (2R,3S)-3-((2-(6-chloro-3-ethoxyquinolin-8-yl)-5-fluorobenzo[d]thiazol-6-yl)oxy)butan-2-yl (2-methylpyrimidin-5-yl)carbamate]",7.4 nM
13,"Cc1ncc(NC(=O)O[C@H](C)[C@H](C)Oc2cc3sc(-c4cc(Cl)cc5cc(OC(F)F)cnc45)nc3cc2F)cn1 [Example 650, (2R,3S)-3-((2-(6-chloro-3-(difluoromethoxy)quinolin-8-yl)-5-fluorobenzo[d]thiazol-6-yl)oxy)butan-2-yl (2-methylpyrimidin-5-yl)carbamate]",5.6 nM
14,"Cc1ncc(NC(=O)O[C@H](C)[C@H](C)Oc2cc3sc(-c4cc(Cl)cc5cc(OCC(F)F)cnc45)nc3cc2F)cn1 [Example 651, (2R,3S)-3-((2-(6-chloro-3-(2,2-difluoroethoxy)quinolin-8-yl)-5-fluorobenzo[d]thiazol-6-yl)oxy)butan-2-yl (2-methylpyrimidin-5-yl)carbamate]",4.3 nM
15,"CNc1cnc2c(-c3nc4cc(F)c(O[C@@H](C)[C@@H](C)OC(=O)Nc5cnc(C)nc5)cc4s3)cc(Cl)cc2c1 [Example 652, (2R,3S)-3-((2-(6-chloro-3-(methylamino)quinolin-8-yl)-5-fluorobenzo[d]thiazol-6-yl)oxy)butan-2-yl (2-methylpyrimidin-5-yl)carbamate]",11 nM

# Compounds with a lower IC50, results first:
row,IC50,SMILES
1,1.4 nM,"COCc1cnc2c(-c3nc4c(C(O)C(C)(C)C)cc(OC)cc4s3)cc(C)cc2n1 (stereo not drawn) [Example 628, 1-(6-methoxy-2-(2-(methoxymethyl)-7-methylquinoxalin-5-yl)benzo[d]thiazol-4-yl)-2,2-dimethylpropan-1-ol]"
2,2.2 nM,"COc1cc(C(O)c2ccccc2)c2nc(-c3cc(C)cc4nc(OC)cnc34)sc2c1 (stereo not drawn) [Example 629, (6-methoxy-2-(2-methoxy-7-methylquinoxalin-5-yl)benzo[d]thiazol-4-yl) (phenyl)methanol]"
3,1.4 nM,"COc1cc(C(O)C(C)(C)C)c2nc(-c3cc(C)cc4nc(OC)cnc34)sc2c1 (stereo not drawn) [Example 630, 1-(6-methoxy-2-(2-methoxy-7-methylquinoxalin-5-yl)benzo[d]thiazol-4-yl)-2,2-dimethylpropan-1-ol]"
4,3 nM,"COc1cc(C(O)C(C)(C)C)c2nc(-c3cc(Cl)cc4nc(OC)cnc34)sc2c1 (stereo not drawn) [Example 636, 1-(2-(7-chloro-2-methoxyquinoxalin-5-yl)-6-methoxybenzo[d]thiazol-4-yl)-2,2-dimethylpropan-1-ol]"
5,2.1 nM,"COc1cc(C(O)C(C)(C)C)c2nc(-c3cc(C)cc4nc(OC)cnc34)sc2c1 (stereo not drawn) [Example 637, 1-(6-methoxy-2-(2-methoxy-7-methylquinoxalin-5-yl)benzo[d]thiazol-4-yl)-2,2-dimethylpropan-1-ol]"
6,2.7 nM,"COc1cnc2c(-c3nc4c(C(O)C(C)(C)C)cc(OCCOC(=O)Nc5cncc(C#N)c5)cc4s3)cc(C)cc2n1 (stereo not drawn) [Example 638, 2-((4-(1-hydroxy-2,2-dimethylpropyl)-2-(2-methoxy-7-methylquinoxalin-5-yl)benzo[d]thiazol-6-yl)oxy)ethyl (5-cyanopyridin-3-yl)carbamate]"
7,1.4 nM,"COc1cc(C(O)C(C)(C)C)c2nc(-c3cc(C#N)cc4nc(OC)cnc34)sc2c1 (stereo not drawn) [Example 639, 8-(4-(1-hydroxy-2,2-dimethylpropyl)-6-methoxybenzo[d]thiazol-2-yl)-3-methoxyquinoxaline-6-carbonitrile]"
8,3.8 nM,"COc1cc(C(O)C2(CO)CCC2)c2nc(-c3cc(C)cc4nc(OC)cnc34)sc2c1 (stereo not drawn) [Example 646, (1-(hydroxymethyl)cyclobutyl)(6-methoxy-2-(2-methoxy-7-methylquinoxalin-5-yl)benzo[d]thiazol-4-yl)methanol]"
9,3 nM,"COc1cnc2c(-c3nc4cc(F)c(O[C@@H](C)[C@@H](C)OC(=O)Nc5cnc(C)nc5)cc4s3)cc(C)cc2c1 [Example 648, (2R,3S)-3-((5-fluoro-2-(3-methoxy-6-methylquinolin-8-yl)benzo[d]thiazol-6-yl)oxy)butan-2-yl (2-methylpyrimidin-5-yl)carbamate]"
10,0.83 nM,"COc1cnc2c(-c3nc4cc(F)c(O[C@@H](C)[C@@H](C)OC(=O)Nc5cnc(C)nc5)cc4s3)cc(C(F)F)cc2c1 [Example 653, (2R,3S)-3-((2-(6-(difluoromethyl)-3-methoxyquinolin-8-yl)-5-fluorobenzo[d]thiazol-6-yl)oxy)butan-2-yl (2-methylpyrimidin-5-yl)carbamate]"
11,1 nM,"COc1cnc2c(-c3nc4cc(F)c(O[C@@H](C)[C@@H](C)OC(=O)Nc5cnc(C)nc5)cc4s3)cc(CF)cc2c1 [Example 654, (2R,3S)-3-((5-fluoro-2-(6-(fluoromethyl)-3-methoxyquinolin-8-yl)benzo[d]thiazol-6-yl)oxy)butan-2-yl (2-methylpyrimidin-5-yl)carbamate]"
12,1.1 nM,"COc1cnc2c(-c3nc4cc(F)c(O[C@@H](C)[C@@H](C)OC(=O)Nc5cnc(C)nc5)cc4s3)cc(C#N)cc2c1 [Example 655, (2R,3S)-3-((2-(6-cyano-3-methoxyquinolin-8-yl)-5-fluorobenzo[d]thiazol-6-yl)oxy)butan-2-yl (2-methylpyrimidin-5-yl)carbamate]"
13,2.4 nM,"COc1cnc2c(-c3nc4c(C(O)C5(C(F)(F)F)CCC5)cc(OC)cc4s3)cc(Cl)cc2c1 (stereo not drawn) [Example 656, (2-(6-chloro-3-methoxyquinolin-8-yl)-6-methoxybenzo[d]thiazol-4-yl)(1-(trifluoromethyl)cyclobutyl)methanol]"
14,1.1 nM,"COc1cnc2c(-c3nc4cc(F)c(O[C@@H](C)[C@@H](C)OC(=O)Nc5cnc(C)nc5)cc4s3)cc(OC)cc2c1 [Example 657, (2R,3S)-3-((2-(3,6-dimethoxyquinolin-8-yl)-5-fluorobenzo[d]thiazol-6-yl)oxy)butan-2-yl (2-methylpyrimidin-5-yl)carbamate]"
15,3 nM,"COc1cnc2c(-c3nc4c(C(O)C(C)(C)C)cc(OCCOC(=O)Nc5ccncc5)cc4s3)cc(C)cc2n1 (stereo not drawn) [Example 658, 2-((4-(1-hydroxy-2,2-dimethylpropyl)-2-(2-methoxy-7-methylquinoxalin-5-yl)benzo[d]thiazol-6-yl)oxy)ethyl pyridin-4-ylcarbamate]"

# From patent US12060347B2 (BRISTOL-MYERS SQUIBB COMPANY, priority 2016, dated 2024)
